Measured values reported in ChEMBL document CHEMBL1201862, “PubChem BioAssay data set” (2004).
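Where inhibition never reached the appropriate level, the endpoint shown equals the highest concentration tested. Otherwise, values were interpolated linearly from a five-concentration, 48-hour dose response in 96-well plates. GI50 is the concentration that inhibits growth by half.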 Active and inactive are the calls of the source. Rule as the data show it: active = GI50 up to about 1.1 µM and inactive = higher.

Key:
Assay in all cases: inhibition of tumour cell growth, NCI panel, 48 h
[1] = tested on: IGROV-1
[2] = tested on: SNB-75
[3] = tested on: T47D
[4] = tested on: SK-MEL-5
[5] = tested on: ACHN
[6] = tested on: CAKI-1
[7] = tested on: MCF7
[8] = tested on: BT-549
[9] = tested on: RXF 393
[10] = tested on: SK-OV-3
[11] = tested on: K562
[12] = tested on: SF-295
[13] = tested on: CCRF-CEM
[14] = tested on: LOX IMVI
[15] = tested on: UACC-62
[16] = tested on: HT-29
[17] = tested on: SW-620
[18] = tested on: OVCAR-8
[19] = tested on: SR

SMILES: O=C1c2c(O)cccc2C(C2OC(CO)C(O)C(O)C2O)c2cc(CO)cc(O)c21 (centres undefined)
- GI50 [1]: > 100 µM (inactive)
- GI50 [2]: > 100 µM (inactive)
- GI50 [3]: > 100 µM (inactive)
- GI50 [4]: > 100 µM (inactive)
- GI50 [5]: > 100 µM (inactive)
- GI50 [6]: > 100 µM (inactive)
- GI50 [7]: > 100 µM (inactive)
- GI50 [8]: > 100 µM (inactive)
- GI50 [9]: > 100 µM (inactive)
- GI50 [10]: > 100 µM (inactive)
- GI50 [11]: > 100 µM (inactive)
- GI50 [12]: > 100 µM (inactive)
- GI50 [13]: > 100 µM (inactive)
- GI50 [14]: > 100 µM (inactive)
- GI50 [15]: > 100 µM (inactive)
- GI50 [16]: > 100 µM (inactive)
- GI50 [17]: > 100 µM (inactive)
- GI50 [18]: > 100 µM (inactive)

SMILES: O=[N+]([O-])/C=C/c1cccc(F)c1
- GI50 [1]: 1.37 µM (inactive)
- GI50 [2]: 13.7 µM (inactive)
- GI50 [3]: 4.88 µM (inactive)
- GI50 [4]: 4.5 µM (inactive)
- GI50 [5]: 2.54 µM (inactive)
- GI50 [6]: 12.9 µM (inactive)
- GI50 [7]: 1.05 µM (active)
- GI50 [8]: 2.03 µM (inactive)
- GI50 [9]: 2.02 µM (inactive)
- GI50 [10]: 14.3 µM (inactive)
- GI50 [12]: 11.4 µM (inactive)
- GI50 [13]: 2.22 µM (inactive)
- GI50 [14]: 0.912 µM (active)
- GI50 [15]: 8.04 µM (inactive)
- GI50 [16]: 3.18 µM (inactive)
- GI50 [17]: 2.58 µM (inactive)
- GI50 [18]: 11.7 µM (inactive)

SMILES: COc1cc2oc(=O)ccc2cc1CC=C(C)C [SUBEROSIN]
- GI50 [1]: 62.8 µM (inactive)
- GI50 [2]: 41.1 µM (inactive)
- GI50 [3]: 15.8 µM (inactive)
- GI50 [4]: 37.3 µM (inactive)
- GI50 [5]: 35.2 µM (inactive)
- GI50 [6]: 40.6 µM (inactive)
- GI50 [7]: 32.4 µM (inactive)
- GI50 [8]: 24.4 µM (inactive)
- GI50 [19]: 21 µM (inactive)
- GI50 [9]: 16.9 µM (inactive)
- GI50 [11]: 51.4 µM (inactive)
- GI50 [12]: 41.1 µM (inactive)
- GI50 [13]: 44 µM (inactive)
- GI50 [14]: 39.1 µM (inactive)
- GI50 [16]: 22.6 µM (inactive)
- GI50 [17]: 41.3 µM (inactive)
- GI50 [18]: 44.6 µM (inactive)

SMILES: c1ccc(-c2cc(-c3cc(-c4ccccc4)no3)on2)cc1
- GI50 [1]: 35.2 µM (inactive)
- GI50 [3]: 81.3 µM (inactive)
- GI50 [4]: > 100 µM (inactive)
- GI50 [5]: 29.3 µM (inactive)
- GI50 [6]: > 100 µM (inactive)
- GI50 [7]: > 100 µM (inactive)
- GI50 [8]: > 100 µM (inactive)
- GI50 [19]: 11.5 µM (inactive)
- GI50 [9]: 67.1 µM (inactive)
- GI50 [10]: 28.6 µM (inactive)
- GI50 [11]: 17.9 µM (inactive)
- GI50 [12]: 53.8 µM (inactive)
- GI50 [13]: 27.4 µM (inactive)
- GI50 [14]: 40.8 µM (inactive)
- GI50 [15]: > 100 µM (inactive)
- GI50 [16]: > 100 µM (inactive)
- GI50 [17]: > 100 µM (inactive)
- GI50 [18]: 13.8 µM (inactive)

SMILES: CCN1C=C/C(=C\C=C\c2cc[n+](CC)c3ccccc23)c2ccccc21
- GI50 [1]: 3.59 µM (inactive)
- GI50 [2]: 2.64 µM (inactive)
- GI50 [3]: 5.93 µM (inactive)
- GI50 [4]: 8.99 µM (inactive)
- GI50 [5]: 11.9 µM (inactive)
- GI50 [7]: 6.28 µM (inactive)
- GI50 [8]: 20.7 µM (inactive)
- GI50 [19]: 3.33 µM (inactive)
- GI50 [9]: 17.3 µM (inactive)
- GI50 [10]: 4.66 µM (inactive)
- GI50 [12]: 3.58 µM (inactive)
- GI50 [13]: 4.52 µM (inactive)
- GI50 [15]: 10.8 µM (inactive)
- GI50 [16]: 3.51 µM (inactive)
- GI50 [17]: 4.62 µM (inactive)
- GI50 [18]: 4.28 µM (inactive)

SMILES: c1cc2sc1CSCCSCCSC2
- GI50 [1]: > 100 µM (inactive)
- GI50 [2]: > 100 µM (inactive)
- GI50 [3]: > 100 µM (inactive)
- GI50 [4]: > 100 µM (inactive)
- GI50 [7]: > 100 µM (inactive)
- GI50 [8]: > 100 µM (inactive)
- GI50 [19]: > 100 µM (inactive)
- GI50 [10]: > 100 µM (inactive)
- GI50 [11]: > 100 µM (inactive)
- GI50 [12]: > 100 µM (inactive)
- GI50 [13]: > 100 µM (inactive)
- GI50 [14]: > 100 µM (inactive)
- GI50 [15]: > 100 µM (inactive)
- GI50 [16]: > 100 µM (inactive)
- GI50 [17]: > 100 µM (inactive)
- GI50 [18]: > 100 µM (inactive)

SMILES: C1=CC(=[N+]2N=C(c3ccccc3)CC2c2ccccc2)C=CC1=C1SC(c2ccccc2)(c2ccccc2)c2ccccc21.[O-][Cl+3]([O-])([O-])[O-] (centres undefined)
- GI50 [1]: > 100 µM (inactive)
- GI50 [3]: > 100 µM (inactive)
- GI50 [4]: > 100 µM (inactive)
- GI50 [5]: > 100 µM (inactive)
- GI50 [7]: > 100 µM (inactive)
- GI50 [8]: 78.5 µM (inactive)
- GI50 [19]: > 100 µM (inactive)
- GI50 [9]: > 100 µM (inactive)
- GI50 [10]: > 100 µM (inactive)
- GI50 [11]: > 100 µM (inactive)
- GI50 [12]: 61.8 µM (inactive)
- GI50 [13]: > 100 µM (inactive)
- GI50 [15]: > 100 µM (inactive)
- GI50 [16]: > 100 µM (inactive)
- GI50 [17]: > 100 µM (inactive)
- GI50 [18]: > 100 µM (inactive)

SMILES: O=C1OC(C(O)CO)C(C(O)CO)OC1=O (centres undefined)
- GI50 [1]: > 10 µM (inactive)
- GI50 [3]: > 10 µM (inactive)
- GI50 [4]: > 10 µM (inactive)
- GI50 [5]: > 10 µM (inactive)
- GI50 [6]: > 10 µM (inactive)
- GI50 [7]: > 10 µM (inactive)
- GI50 [8]: > 10 µM (inactive)
- GI50 [19]: > 10 µM (inactive)
- GI50 [9]: > 10 µM (inactive)
- GI50 [11]: > 10 µM (inactive)
- GI50 [12]: > 10 µM (inactive)
- GI50 [13]: > 10 µM (inactive)
- GI50 [15]: > 10 µM (inactive)
- GI50 [16]: > 10 µM (inactive)
- GI50 [17]: > 10 µM (inactive)
- GI50 [18]: > 10 µM (inactive)
